Data: ChEMBL document CHEMBL4229531, “Synthesis and evaluation of 1,2,3,4-tetrahydro-1-acridone analogues as potential dual inhibitors for amyloid-beta and tau aggregation” (Bioorg Med Chem, 2018)
Activity calls are given as the source filed them. The rule behind the calls is not given here.

Columns and labels:
[1] = Permeability of the compound at 100 ug/ml after 10 hrs by artificial membrane permeability assay; type: ADME; conditions: PAMPA; read-out: permeability
[2] = biological target: T1, Amyloid-beta precursor protein (Homo sapiens, UniProt P05067); test: Inhibition of self-induced amyloid beta (1 to 42) (unknown origin) aggregation at 20 uM after 72 hrs by thioflavin T assay relative to control
T1 sequence (P05067 whole entry): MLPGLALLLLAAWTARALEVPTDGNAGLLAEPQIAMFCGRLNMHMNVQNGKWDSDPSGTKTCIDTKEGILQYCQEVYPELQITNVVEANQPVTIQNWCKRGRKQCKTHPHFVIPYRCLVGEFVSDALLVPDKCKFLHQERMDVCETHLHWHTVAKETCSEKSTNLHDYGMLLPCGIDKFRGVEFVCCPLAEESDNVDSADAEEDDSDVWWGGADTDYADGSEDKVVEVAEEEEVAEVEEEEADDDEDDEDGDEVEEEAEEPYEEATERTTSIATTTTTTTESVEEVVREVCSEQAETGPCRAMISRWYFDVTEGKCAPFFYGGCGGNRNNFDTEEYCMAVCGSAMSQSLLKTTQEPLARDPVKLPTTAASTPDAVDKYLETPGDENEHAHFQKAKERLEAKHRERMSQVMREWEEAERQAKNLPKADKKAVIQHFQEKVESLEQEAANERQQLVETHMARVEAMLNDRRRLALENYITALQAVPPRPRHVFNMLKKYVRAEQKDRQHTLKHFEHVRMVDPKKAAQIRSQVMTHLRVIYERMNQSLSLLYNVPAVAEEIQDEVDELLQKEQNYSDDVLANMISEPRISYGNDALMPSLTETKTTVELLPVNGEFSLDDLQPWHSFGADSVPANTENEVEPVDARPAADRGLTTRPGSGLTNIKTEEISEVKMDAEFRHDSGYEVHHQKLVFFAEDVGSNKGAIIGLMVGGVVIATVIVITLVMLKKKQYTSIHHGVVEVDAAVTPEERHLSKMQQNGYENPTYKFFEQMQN

[3] = organism: Homo sapiens; test: Inhibition of recombinant full length tau 0N4R (unknown origin) aggregation expressed in Escherichia coli at 20 uM after 72 hrs by thioflavin S assay relative to control
[4] = test system: Microtubule-associated protein tau (Mus musculus), P10637 [P243L]; test: Inhibition of congo red-induced EGFP-tagged Tau P301L mutant (unknown origin) aggregation expressed in HEK293T cells at 0.5 uM pretreated for 30 mins followed by congo red addition and measured after 24 hrs by DAPI staining-based fluorescence assay; type: cell-based; conditions: Homo sapiens
Microtubule-associated protein tau (Mus musculus), P10637 [P243L], sequence (P10637 whole entry P243L): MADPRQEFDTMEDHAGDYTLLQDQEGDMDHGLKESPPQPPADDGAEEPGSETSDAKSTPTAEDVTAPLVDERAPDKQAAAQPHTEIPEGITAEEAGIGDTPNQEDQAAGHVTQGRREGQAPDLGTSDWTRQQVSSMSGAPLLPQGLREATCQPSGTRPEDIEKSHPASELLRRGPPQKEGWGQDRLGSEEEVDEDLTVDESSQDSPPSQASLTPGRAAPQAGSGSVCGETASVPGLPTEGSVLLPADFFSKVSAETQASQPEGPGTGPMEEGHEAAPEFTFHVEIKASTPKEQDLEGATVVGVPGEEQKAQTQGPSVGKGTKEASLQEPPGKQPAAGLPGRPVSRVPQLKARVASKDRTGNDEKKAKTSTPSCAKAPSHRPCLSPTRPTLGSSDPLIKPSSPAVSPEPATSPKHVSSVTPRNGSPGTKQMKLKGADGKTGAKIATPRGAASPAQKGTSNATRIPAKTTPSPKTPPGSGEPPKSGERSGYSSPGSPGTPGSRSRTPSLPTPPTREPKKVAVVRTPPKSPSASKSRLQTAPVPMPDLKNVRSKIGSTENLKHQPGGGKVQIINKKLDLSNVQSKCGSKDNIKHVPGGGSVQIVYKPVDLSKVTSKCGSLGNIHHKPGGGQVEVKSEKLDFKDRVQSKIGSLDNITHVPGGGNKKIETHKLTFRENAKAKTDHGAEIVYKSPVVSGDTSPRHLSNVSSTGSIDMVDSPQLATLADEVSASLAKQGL

[5] = Binding affinity to recombinant full length tau 0N4R (unknown origin) expressed in Escherichia coli by surface plasmon resonance assay; set-up: species or system Homo sapiens
[6] = biological target: T1, Amyloid-beta precursor protein; test: Inhibition of self-induced amyloid beta (1 to 42) (unknown origin) fibril formation at 20 uM after 24 hrs by uranyl acetate staining-based transmission electron microscopic method
[7] = biological target: T1, Amyloid-beta precursor protein; test: Inhibition of amyloid beta (1 to 42) (unknown origin) beta-sheet formation at 20 uM after 24 hrs by CD spectroscopic method
[8] = biological target: T1, Amyloid-beta precursor protein; test: Binding affinity to amyloid beta (1 to 42) (unknown origin) by surface plasmon resonance assay
[9] = organism: Homo sapiens; test: Inhibition of fibril formation of recombinant full length tau 0N4R (unknown origin) expressed in Escherichia coli at 20 uM after 24 hrs by uranyl acetate staining-based transmission electron microscopic method
[10] = test system: HEK-293T; test: Effect on proliferation of HEK293T cells transfected with EGFP-tagged Tau P301L mutant at 1 uM; type: cell-based; conditions: human
[11] = test system: Microtubule-associated protein tau (Mus musculus), P10637 [P243L]; test: Inhibition of congo red-induced EGFP-tagged Tau P301L mutant (unknown origin) aggregation expressed in HEK293T cells at 1 uM pretreated for 30 mins followed by congo red addition and measured after 24 hrs by DAPI staining-based fluorescence assay; type: cell-based; conditions: Homo sapiens

Row | Compound | Papp at 10 h, 100 ug/ml [1] [×10⁻⁶ cm/s] | inhibition [2] [%] | inhibition [3] [%] | also measured
1 | C[n+]1c2c(c(N)c3ccccc31)C(=O)/C(=C/c1ccccc1)CC2.[I-] | 2.4 | 84.7 | 71.2 | –
2 | C[n+]1c2c(c(N)c3ccccc31)C(=O)/C(=C\c1cccc(F)c1)CC2.[I-] | 2.7 | 89.1 | 23.3 | –
3 | COc1ccc(/C=C2\CCc3nc4ccccc4c(N)c3C2=O)cc1 | 10.5 | -2 | 43.4 | –
4 | Nc1c2c(nc3ccccc13)CC/C(=C\c1ccc(Cl)cc1)C2=O | 30.3 | 24.8 | 7.1 | –
5 | Nc1c2c(nc3ccccc13)CC/C(=C\C=C\c1ccccc1)C2=O | 1.3 | 2 | -3.8 | –
6 | Nc1c2c(nc3ccccc13)CC/C(=C/c1cccs1)C2=O | 10.8 | – | 5.9 | –
7 | C[n+]1c2c(c(N)c3ccccc31)C(=O)/C(=C/c1cccc(F)c1)CC2.[I-] | 3.6 | 98.7 | 86.3 | –
8 | C[n+]1c2c(c(N)c3ccccc31)C(=O)/C(=C\c1cccc(Cl)c1)CC2.[I-] | 4.6 | 105 | 15.4 | –
9 | CN(C)c1ccc2c(c1)Sc1cc(N(C)C)ccc1N2 | – | – | – | inhibition [4]: 74.4%
10 | C[n+]1c2c(c(N)c3ccccc31)C(=O)/C(=C/c1cccc([N+](=O)[O-])c1)CC2.[I-] | 2.1 | 86.4 | 98.2 | –
11 | Nc1c2c(nc3ccccc13)CC/C(=C\c1cccc3ccccc13)C2=O | 0.5 | 7.8 | -6.7 | –
12 | Nc1c2c(nc3ccccc13)CC/C(=C\c1ccc([N+](=O)[O-])cc1)C2=O | 11.2 | 2.4 | -3.3 | –
13 | C[n+]1c2c(c(N)c3ccccc31)C(=O)/C(=C\c1cccc3ccccc13)CC2.[I-] | 3.5 | 91.2 | 79.2 | –
14 | C[n+]1c2c(c(N)c3ccccc31)C(=O)/C(=C/c1cccc(Cl)c1)CC2.[I-] | 4.1 | 91.9 | 98.3 | –
15 | Nc1c2c(nc3ccccc13)CC/C(=C/c1ccccc1)C2=O | 13.3 | – | – | –
16 | CN(C)c1ccc2nc3ccc(N(C)C)cc3[s+]c2c1 [METHYLENE BLUE ANHYDROUS] | – | – | – | Kd [5]: 28.2 µM
17 | Nc1c2c(nc3ccccc13)CCC(Cc1ccccc1)C2=O (stereo not given) | 13.9 | -4 | 10 | –
18 | C[n+]1c2c(c(N)c3ccccc31)C(=O)/C(=C/c1cccs1)CC2.[I-] | 1.7 | 99.5 | 95.3 | –
19 | C[n+]1c2c(c(N)c3ccccc31)C(=O)/C(=C\c1cccs1)CC2.[I-] | 1.7 | 94.9 | 31.6 | –
20 | Nc1c2c(nc3ccccc13)CC/C(=C\c1ccccc1)C2=O | 26.4 | 7.7 | 18.7 | –
21 | Oc1ccc(/C=C/c2cc(O)cc(O)c2)cc1 | – | – | – | inhibition [6]: Active
22 | Nc1c2c(nc3ccccc13)CC/C(=C\c1ccco1)C2=O | 16.2 | 15.2 | 30.7 | –
23 | C[n+]1c2c(c(N)c3ccccc31)C(=O)/C(=C\c1cccc([N+](=O)[O-])c1)CC2.[I-] | 1.8 | 94.4 | 32 | –
24 | Nc1c2c(nc3ccccc13)CC/C(=C/c1cccc3ccccc13)C2=O | 49.5 | -6.8 | – | –
25 | C[n+]1c2c(c(N)c3ccccc31)C(=O)/C(=C/c1cccc3ccccc13)CC2.[I-] | 4.6 | 86.7 | 102 | inhibition [7]: Active; inhibition [6]: Active; Kd [8]: 16 µM; inhibition [9]: Active; Activity [10]: Non-Toxic; Kd [5]: 33.7 µM; inhibition [11]: 62.6%
26 | C[n+]1c2c(c(N)c3ccccc31)C(=O)/C(=C\c1ccccc1)CC2.[I-] | 1.8 | 97.6 | 7.2 | –

More lines, main results first:

Row | Papp at 10 h, 100 ug/ml [1] [×10⁻⁶ cm/s] | inhibition [2] [%] | inhibition [3] [%] | Compound | also measured
27 | 20.3 | – | – | Nc1c2c(nc3ccccc13)CC/C(=C/c1cccc(F)c1)C2=O | –
28 | 17.2 | 7.2 | 14.7 | O=C1/C(=C/c2cccc(F)c2)CCc2nc3ccccc3cc21 | –
29 | 3.1 | 16.6 | 15.7 | Cc1c2c(nc3ccccc13)CC/C(=C\c1ccccc1)C2=O | –
30 | 2 | 46.2 | 4.2 | O=C1/C(=C/c2cccc(Cl)c2)CCc2nc3ccccc3cc21 | –
31 | 6.9 | 37 | 25.3 | Nc1c2c(nc3ccccc13)CC/C(=C\c1ccccc1F)C2=O | –
32 | 15.6 | – | – | Nc1c2c(nc3ccccc13)CC/C(=C/c1cccc(Cl)c1)C2=O | –
33 | 8.3 | -0.5 | 2.9 | O=C1/C(=C/c2ccccc2F)CCc2nc3ccccc3cc21 | –
34 | 5.3 | 20.3 | 4.9 | Nc1c2c(nc3ccccc13)CC/C(=C\c1cccc(F)c1)C2=O | –
35 | 3.2 | 2.7 | 6.3 | O=C1/C(=C/c2ccc([N+](=O)[O-])cc2)CCc2nc3ccccc3cc21 | –
36 | 7.4 | 14.1 | -3.6 | Nc1c2c(nc3ccccc13)CC/C(=C\c1ccccc1Cl)C2=O | –
37 | 7.5 | 7.9 | 44.3 | COc1cccc(/C=C2\CCc3nc4ccccc4c(N)c3C2=O)c1 | –
38 | – | – | 80.1 | CN(C)c1ccc2nc3ccc(=[N+](C)C)cc-3sc2c1 | –
39 | 7.1 | 3.5 | 14.9 | O=C1/C(=C/c2ccccc2Cl)CCc2nc3ccccc3cc21 | –
40 | 9.1 | – | – | Nc1c2c(nc3ccccc13)CC/C(=C/c1cccc([N+](=O)[O-])c1)C2=O | –
41 | 8.6 | -3.2 | 20.5 | O=C1/C(=C/c2ccccc2)CCc2nc3ccccc3cc21 | –
42 | 7.2 | 14.5 | 11.9 | Nc1c2c(nc3ccccc13)CC/C(=C\c1cccs1)C2=O | –
43 | 1.1 | 34.2 | -3.1 | Nc1c2c(nc3ccccc13)CC/C(=C\c1cccc(Cl)c1)C2=O | –
44 | 3.3 | 8.2 | – | Nc1c2c(nc3ccccc13)CC/C(=C\c1cccc([N+](=O)[O-])c1)C2=O | –
